One data set has as its system human MSCs. As to the kind of experiment: IL-10 mRNA (RT-PCR) and protein (ELISA) in cytokine-treated MSCs. Format: cell-based. The following applies: IL-6 2.5 ng/ml or TNF-α 25 ng/ml, 24 hours. Here is the method:
MSCs were exposed to IL-1, IL-6, or tumor necrosis factor-α(TNF-α), all of which are cytokines known to be involved in liver fibrosis, for 24 hours. IL-10 protein secretion and mRNA levels were the determined by enzyme-linked-immunosorbent-assay (ELISA) and RT-PCR, respectively.
Briefly, human MSCs were treated with 2.5 ng/ml IL-6 (R&D Systems, Minneapolis, Minn.), 5 ng/ml IL-1 (R&D Systems, Minneapolis, Minn.), or 25 ng/ml TNF-α (R&D Systems, Minneapolis, Minn.) supplemented MSC expansion medium for 24 hours. MSCs cultured in expansion medium served as a negative control. After treatment, cells were harvested and analyzed for changes in gene expression.
Quantification of human IL-10 was determined using an ELISA as per vendor instructions (Endogen, Rockford, Ill.). Supernatants were sampled after 48 hours of co-culture and stored at −20° C. until analysis.
RNA was extracted from 0.1-1.0×10^6 MSCs using the NUCLEOSPIN RNA purification kit (BD Biosciences, Palo Alto, Calif.) per the manufacturer's instructions. Approximately 1 μg of total mRNA was reverse transcribed to cDNA using the ONESTEP RT-PCR Kit (Qiagen, Valencia, Calif.) per manufacturer's instructions and amplified in a Perkin Elmer-Cetus Thermal Cycler 480. Cycling conditions were: 1) 50° C. for 30 minutes; 2) 95° C. for 15 minutes; 3) 30 cycles at 94° C. for 30 seconds, 55° C. for 30 seconds, and 72° C. for 1 minute; and 4) a final extension step at 72° C. for 10 minutes. IL-10 was amplified using a combination of the sense and antisense oligonucleotides SEQ ID NO:1 and SEQ ID NO:2, respectively, to yield a 364 base pair (bp) PCR product. Glyceraldehyde 3-phosphate dehydrogenase (GAPDH) was amplified using a combination of the sense and antisense oligonucleotides SEQ ID NO:3 and SEQ ID NO:4, respectively, to yield a 238 bp PCR product.
On the technique in general: An ELISA detects its analyte on a solid surface through an enzyme-linked reagent.

A further data set concerns Hepatocytes. As to the kind of experiment: Hepatocyte colonies and urea synthesis with modulation of SDF-1a signaling. Format: cell-based. Conditions: 5 ng/ml SDF-1a or AMD3100 at 1 uM in standard culture medium. The protocol: FIG. 24 is a bar graph of Urea synthesis in hepatocytes cultured on growth-arrested NIH-3T3-J2 fibroblasts for 14 days supplemented with 5 ng/ml SDF-1a or AMD3100, a CXCR4 antagonist. Data represent mean±standard error of the mean (s.e.m.) of two independent experiments performed in triplicate.
One component of MSC-CM that may be responsible for increased hepatocyte replication is SDF-1a. Hepatocytes were proliferated using aforementioned techniques in standard culture medium alone or supplemented with 5 ng/ml SDF-1a (FIG. 29B) or the SDF-1a receptor antagonist, AMD3100 at 1 uM.

As for TNF-α, in the data set with human MSCs, the “IL-10 mRNA in MSCs” value is “upregulation” and the “IL-10 protein secretion into the culture medium by MSCs” value is reported as “upregulation”.
Take `c1cc(CN2CCCNCCNCCCNCC2)ccc1CN1CCCNCCNCCCNCC1` [AMD3100]: the hepatocyte colony size result in the data set on Hepatocytes is reported as “smaller colonies”.
As for “IL-6: cytokine (R&D Systems) used at 2.5 ng/ml to treat human MSCs”, in the data set with human MSCs, the “IL-10 mRNA in MSCs” value was “upregulation” and the “IL-10 protein secretion into the culture medium by MSCs” value is “upregulation”.

These data come from US10363276B2, “Compositions, methods, and devices for treating disease” (The General Hospital Corporation, priority 2006, dated 2019).
